Reference: publication PMC7480010 (Journal of biomolecular screening, 2015)

Test system: MDA-MB-231
Assay type: cell-based, human
Settings: anisomycin stimulation

SMILES: Cc1ccc(-n2nc(C(C)(C)C)cc2NC(=O)Nc2ccc(OCCN3CCOCC3)c3ccccc23)cc1 [BIRB-796]
- level of phosphorylated/activated p38: reduces in the overall level of phosphorylated p38
- phosphorylation status of SAPK/JNK: reduces the phosphorylation of JNK
